# According to PubChem BioAssay AID977630 (Broad Institute, 2014):
# Inconclusive results are not listed. Calls of active or inactive are those of the source.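 How the source made its calls: active means Normal-ribosome green reporter loss at least double humanized-ribosome red reporter loss, with overall culture growth inhibition under a set limit; inconclusive means no clear call, values can overlap the other calls; inactive means the rest.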
# System: E. coli wild-type GFP growth, mixed culture, 24 h
# Assay: E. coli growth inhibition, wild-type GFP versus H38 humanized RFP strain – H38 mutant RFP vs wild-type GFP, cherry-pick, dose response (AID 977630)
# [1] = E. coli mixed culture total OD600 growth, 24 h
Compound,AC50,AC50 [1] [µM]
O=C(Nc1cccc(O)c1)c1cccc(S(=O)(=O)Nc2cccc(O)c2)c1,> 100 µM (inactive),> 100
CNC(=O)c1ccsc1NC(=O)c1ccc(S(=O)(=O)N2CCc3ccccc32)cc1,–,> 100
C=CCn1c(C)cc(C(=O)CSc2nnc(C3CC3)n2C2CC2)c1C,> 100 µM (inactive),> 100
COc1cccc(-c2ccc(NC(=O)C3CCCN(Cc4cnn(C(C)C)c4)C3)cc2)c1 (stereo not given),–,> 100
C=CCNC(=O)c1ccccc1CCc1ccccc1,> 100 µM (inactive),–
CN1CCN(c2nc(Nc3ccc(O)cc3)nc3ccccc23)CC1,> 100 µM (inactive),–
Cc1ccc2c(N)c(C(=O)c3ccccc3)sc2n1,–,> 100
COc1ccc(C2CC(c3cccs3)=Nc3ccccc3S2)cc1 (stereo not given),–,> 100
COC(=O)c1cc2c(c3c4cc(F)ccc4n(S(=O)(=O)c4ccccc4)c13)C(=O)N(Cc1ccco1)C2,> 100 µM (inactive),–
CC1CCN(C(=O)COC(=O)c2ccccc2NC(=O)c2ccco2)CC1,> 100 µM (inactive),–
Cc1nnn(C23CC4CC(CC(CC(=O)Nc5ccc(C)c(C)c5)(C4)C2)C3)n1,> 100 µM (inactive),–
CC(=O)Nc1ccc(OCC(=O)N2CCC(Cc3ccccc3)CC2)cc1,> 100 µM (inactive),–
CCOC(=O)c1ccc(NC(=O)c2ccc(OC(C)C)c(OC)c2)cc1,–,> 100
CCC1(CC)NC(=O)N(CC(=O)N2N=C(c3ccc(Cl)cc3)CC2c2ccco2)C1=O (stereo not given),> 100 µM (inactive),–
CC(=O)Nc1ccc(-c2ccnc3c2CC(C)(C(=O)Nc2ccc4c(c2)OCO4)O3)cc1 (stereo not given),> 100 µM (inactive),–
O=C(c1ccc(-n2cccn2)cc1)N1CCc2ccccc2C1,> 100 µM (inactive),–
CCN(c1ccccc1)S(=O)(=O)c1ccc(OC)c(NC(=O)C2CC(=O)N(Cc3ccccc3)C2)c1 (stereo not given),> 100 µM (inactive),–
C=CCN(c1ccccc1)S(=O)(=O)c1ccc(Cl)c(C(=O)OCC(=O)NCCCN2CCCC2=O)c1,–,> 100
O=C1c2ccccc2CSc2c(O)cccc21,> 100 µM (inactive),50.8
Cc1onc(-c2ccccc2Cl)c1C(=O)OCC(=O)c1ccccc1,–,> 100
Cc1ccc(S(=O)(=O)N2CCCCC2C(=O)N2CCN(c3ccccc3F)CC2)cc1 (stereo not given),–,> 100
CCCc1nc2oc3c(NCCCN(C)C)ncnc3c2c2c1CCCC2,> 100 µM (inactive),> 100
COC(=O)c1ccc2nc(-c3ccc(OC)c(OC)c3)c(Cc3ccc(C)cc3)n2c1,> 100 µM (inactive),–
S=c1nc(-c2cccc(Br)c2)[nH][nH]1,–,> 100
CN(CCOc1ccccc1)S(=O)(=O)c1ccccc1C#N,> 100 µM (inactive),–

Compound,AC50,AC50 [1] [µM]
Cc1cc(C)n(CC(O)COc2ccc3ccccc3c2)n1 (stereo not given),> 100 µM (inactive),> 100
COC(=O)c1c(NC(=O)CCC(=O)O)sc(Cc2ccccc2)c1C,3.63 µM,–
CN1OC[C@@H]2CN(C(=O)c3ccco3)[C@H](c3ccc(-c4ccc(C#N)cc4)cc3)C[C@@H]21,–,> 100
COc1cccc(C(=O)Nc2nnc(S(=O)(=O)N(C)Cc3ccccc3)s2)c1,> 100 µM (inactive),50.9
COc1ccc(C(NC(=O)C2CCN(CCOc3ccc(Cl)cc3Cl)CC2)c2ccccc2C)cn1 (stereo not given),–,> 100
O=C(CCCn1c(=S)[nH]c2ccsc2c1=O)Nc1ccc2c(c1)OCCO2,> 100 µM (inactive),> 100
O=C(Nc1ccn(Cc2ccc(Cl)cc2)n1)c1ccccc1,–,> 100
O=C(c1cnc(Cc2c[nH]c3ccccc23)c(I)c1)N1CCCCC1,> 100 µM (inactive),> 100
CC1Cc2ccccc2N1C(=O)CN1C(=O)NC(C)(CCc2ccccc2)C1=O (stereo not given),–,> 100
COc1ccccc1CN1Cc2ccccc2Oc2ccccc2S1(=O)=O,> 100 µM (inactive),> 100
CCCNc1ccc(C(=O)OCC)cc1[N+](=O)[O-],> 100 µM (inactive),> 100
O=C(COC(=O)C1CC1)Nc1nc(-c2ccc(F)c(F)c2)cs1,> 100 µM (inactive),–
CC(=O)Nc1nc(C)c(-c2csc(Nc3ccccn3)n2)s1,> 100 µM (inactive),–
COC(=O)c1sccc1NC(=O)CNC(=O)c1ccccc1,–,> 100
COc1ccc(OC)c(-c2csc(NC(=O)C3COc4ccccc4O3)n2)c1 (stereo not given),> 100 µM (inactive),–
O=C(Nc1cccnc1)c1ccc([N+](=O)[O-])o1,> 100 µM (inactive),–
CCN(c1ccccc1)S(=O)(=O)c1ccc(Cl)c(NC(=O)CSc2n[nH]c(N)n2)c1,> 100 µM (inactive),> 100
CCOC(=O)c1c(C)[nH]c(C)c1S(=O)(=O)NCCN1CCN(c2ccccc2F)CC1,–,> 100
Cc1ccc(NC(=O)COC(=O)CCNS(=O)(=O)c2c(Cl)cccc2Cl)cc1,–,> 100
CCc1cccc(NC(=O)c2ccc3c(=O)n4c(nc3c2)CCCCC4)c1,> 100 µM (inactive),–
CN(C)CCCN(C(=O)CCSc1ccccc1)c1nc2cc3c(cc2s1)OCO3,> 100 µM (inactive),–
COc1ccc(OC)c(NC(=O)CN(C)CC(=O)Nc2ccccc2Br)c1,> 100 µM (inactive),–
CCc1nc2ccccc2n1CCc1ccccc1,> 100 µM (inactive),–
Cc1nn(C(C)(C)C)c(OC(=O)CC(C)C)c1S(=O)(=O)c1ccccc1,> 100 µM (inactive),–
